From ChEMBL document CHEMBL2406999, “Vialinin A is a ubiquitin-specific peptidase inhibitor” (Bioorg Med Chem Lett, 2013)
Changes are numbered by the printed parent chain. Calls of active or inactive are those of the source. No cut-off for these calls is given here.

How the values were obtained:
RBL-2H3 = test: Binding affinity to USP5 in rat RBL2H3 cell extracts at 10 to 40 uM by SDS-PAGE analysis
[1] = target: T1, Ubiquitin carboxyl-terminal hydrolase 4 (Homo sapiens, UniProt Q13107); test: Inhibition of human USP4 using Ub-AMC as substrate after 60 mins by fluorometric analysis
T1 sequence (Q13107 whole entry): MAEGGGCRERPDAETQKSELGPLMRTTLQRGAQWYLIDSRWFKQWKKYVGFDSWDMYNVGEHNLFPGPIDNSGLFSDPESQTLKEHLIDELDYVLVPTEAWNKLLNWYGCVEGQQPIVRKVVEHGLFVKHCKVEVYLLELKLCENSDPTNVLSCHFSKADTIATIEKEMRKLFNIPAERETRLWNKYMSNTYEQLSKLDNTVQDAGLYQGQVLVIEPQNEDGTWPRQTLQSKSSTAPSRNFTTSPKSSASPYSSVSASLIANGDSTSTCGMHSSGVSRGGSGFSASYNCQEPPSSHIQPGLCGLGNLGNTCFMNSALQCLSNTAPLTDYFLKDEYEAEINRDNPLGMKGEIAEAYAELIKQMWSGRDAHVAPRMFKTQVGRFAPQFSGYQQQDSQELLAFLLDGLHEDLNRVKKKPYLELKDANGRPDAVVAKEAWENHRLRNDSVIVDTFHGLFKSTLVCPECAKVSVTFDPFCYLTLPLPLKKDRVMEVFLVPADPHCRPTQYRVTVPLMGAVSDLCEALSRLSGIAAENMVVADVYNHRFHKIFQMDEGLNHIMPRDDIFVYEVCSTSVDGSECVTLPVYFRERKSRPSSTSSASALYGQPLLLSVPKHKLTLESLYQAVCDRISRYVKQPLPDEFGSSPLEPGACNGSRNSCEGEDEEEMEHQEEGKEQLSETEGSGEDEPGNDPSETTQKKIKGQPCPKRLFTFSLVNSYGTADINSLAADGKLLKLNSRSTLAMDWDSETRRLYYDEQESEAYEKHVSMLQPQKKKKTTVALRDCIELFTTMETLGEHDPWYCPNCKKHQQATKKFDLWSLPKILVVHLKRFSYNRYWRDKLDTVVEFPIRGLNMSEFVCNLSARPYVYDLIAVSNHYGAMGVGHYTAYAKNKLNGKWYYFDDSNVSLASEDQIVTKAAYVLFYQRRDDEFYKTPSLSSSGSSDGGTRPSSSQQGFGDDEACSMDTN

[2] = target: T2, Ubiquitin carboxyl-terminal hydrolase 5 (Homo sapiens) (UniProt P45974); test: Competitive binding affinity to human recombinant USP5 after 1 hr by SDS-PAGE analysis in presence of biotin-DMT
T2 sequence (whole entry): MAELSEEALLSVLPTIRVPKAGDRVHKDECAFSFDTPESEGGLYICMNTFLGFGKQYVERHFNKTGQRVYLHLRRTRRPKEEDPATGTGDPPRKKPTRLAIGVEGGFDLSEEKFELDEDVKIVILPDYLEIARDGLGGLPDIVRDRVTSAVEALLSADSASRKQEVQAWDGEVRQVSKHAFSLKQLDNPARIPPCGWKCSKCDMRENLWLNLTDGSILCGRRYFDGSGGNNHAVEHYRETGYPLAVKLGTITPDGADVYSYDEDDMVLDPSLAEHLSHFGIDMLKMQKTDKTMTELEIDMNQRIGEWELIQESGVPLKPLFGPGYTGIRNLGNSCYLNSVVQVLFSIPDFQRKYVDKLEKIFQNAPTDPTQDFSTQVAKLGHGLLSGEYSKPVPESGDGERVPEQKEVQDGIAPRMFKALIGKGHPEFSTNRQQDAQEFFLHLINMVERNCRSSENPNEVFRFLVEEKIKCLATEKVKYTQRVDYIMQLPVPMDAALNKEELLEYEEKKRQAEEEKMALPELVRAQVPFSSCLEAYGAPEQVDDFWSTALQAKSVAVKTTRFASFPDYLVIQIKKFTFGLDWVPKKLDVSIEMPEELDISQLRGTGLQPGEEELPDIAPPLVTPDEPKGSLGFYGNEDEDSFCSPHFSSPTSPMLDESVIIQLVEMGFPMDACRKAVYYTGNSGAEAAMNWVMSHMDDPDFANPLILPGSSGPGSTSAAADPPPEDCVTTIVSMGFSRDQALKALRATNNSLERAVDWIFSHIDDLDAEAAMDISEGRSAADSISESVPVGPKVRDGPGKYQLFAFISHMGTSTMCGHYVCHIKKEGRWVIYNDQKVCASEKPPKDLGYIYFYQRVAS

[3] = test system: T3, Ubiquitin carboxyl-terminal hydrolase 5 (Homo sapiens), P45974 [C335A]; test: Competitive binding affinity to human USP5 C335A mutant by SDS-PAGE analysis in presence of biotin-DMT
T3 sequence (whole entry): T2 sequence (whole entry) with C335A

Compound: O=C(Cc1ccccc1)Oc1c(OC(=O)Cc2ccccc2)c(-c2ccc(O)cc2)c(O)c(O)c1-c1ccc(O)cc1 [VIALININ A]
- Activity (RBL-2H3): inactive
- IC50 [1]: 1.5 µM
- Activity [2]: Active
- Activity [3]: inactive
